Target: Glycogen synthase kinase-3 beta (Homo sapiens, UniProt P49841)
Assay: concentration-response blocking of human GSK3B – biochemical, luminescence, cell-free homogeneous, retest, dose response (AID 434954)

Chain of Glycogen synthase kinase-3 beta (P49841 whole entry): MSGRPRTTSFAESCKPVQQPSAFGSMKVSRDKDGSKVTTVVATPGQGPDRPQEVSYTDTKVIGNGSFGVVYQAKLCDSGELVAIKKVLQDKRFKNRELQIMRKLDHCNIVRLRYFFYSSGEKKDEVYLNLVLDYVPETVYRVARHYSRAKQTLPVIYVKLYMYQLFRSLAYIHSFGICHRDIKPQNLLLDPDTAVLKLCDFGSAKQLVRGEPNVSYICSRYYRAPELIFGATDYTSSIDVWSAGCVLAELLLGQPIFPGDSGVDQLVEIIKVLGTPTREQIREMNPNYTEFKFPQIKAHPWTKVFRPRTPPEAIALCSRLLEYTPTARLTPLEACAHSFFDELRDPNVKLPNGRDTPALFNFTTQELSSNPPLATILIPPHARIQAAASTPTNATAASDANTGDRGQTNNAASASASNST

Row | SMILES | EC50 [µM]
1 | CCOC(=O)CSc1ccc2nnc(-c3cccs3)n2n1 [ethyl 2-[(3-thiophen-2-yl-[1,2,4]triazolo[4,3-b]pyridazin-6-yl)sulfanyl]ethanoate] | 4.1
2 | O=C(CCC1CCN(C(=O)c2cc(C(F)(F)F)ccc2Cl)CC1)NC1CC1 [3-[1-[2-chloro-5-(trifluoromethyl)benzoyl]piperidin-4-yl]-N-cyclopropylpropanamide] | > 300
3 | O=C1N=C(NS(=O)(=O)Cc2ccccc2)S/C1=C/c1ccc2c(c1)OCO2 [N-[5-[1-Benzo[1,3]dioxol-5-yl-meth-(E)-ylidene]-4-oxo-thiazolidin-(2E)-ylidene]-C-phenyl-methanesulfon amide] | 18.8
4 | Cc1cccc2cc3c(NC(=O)C(C)(C)C)nn(CC(C)C)c3nc12 | > 300
5 | CC[n+]1c(CC=Nc2ccccc2)sc2ccccc21 | > 300
6 | N#Cc1ccccc1CSc1nnc(-c2ccncc2)o1 [2-[(5-pyridin-4-yl-1,3,4-oxadiazol-2-yl)sulfanylmethyl]benzenecarbonitrile] | 20.7
7 | CCCN(CCC)Cc1c(C(=O)NN=Cc2cccs2)nnn1-c1nonc1N | 60
8 | CC1=Nc2ncnn2C(c2cccnc2)C1C(=O)OCc1ccccc1 (stereo not drawn) [(phenylmethyl) 5-methyl-7-pyridin-3-yl-1,7-dihydro-[1,2,4]triazolo[1,5-a]pyrimidine-6-carboxylate] | 28
9 | CC1(C)CC(=O)C=C(Nc2ccccn2)C1 | > 300
10 | O=C(OCCN1CCCCC1)c1ccc(O)cc1 [4-hydroxybenzoic acid 2-(1-piperidinyl)ethyl ester] | > 300
11 | CSc1nc(NCCCO)c2c3c(sc2n1)CN(C)CC3 | 29.8
12 | CC(N=Nc1nccnc1Cl)c1ccc(Br)cc1 (stereo not drawn) [N-[1-(4-bromophenyl)ethylideneamino]-3-chloranyl-pyrazin-2-amine] | > 300
13 | CCC(=O)Nc1sc2c(c1C(N)=O)CCN(C(C)=O)C2 [6-acetyl-2-(1-oxopropylamino)-5,7-dihydro-4H-thieno[2,3-c]pyridine-3-carboxamide] | 13.8
14 | CCOC(=O)c1nnn(-c2nonc2N)c1-c1ccc(C)cc1 [ethyl 1-(4-amino-1,2,5-oxadiazol-3-yl)-5-(4-methylphenyl)triazole-4-carboxylate] | 51
15 | CCc1ccc(Oc2ncnc(N)c2[N+](=O)[O-])cc1 [6-(4-ethylphenoxy)-5-nitro-4-pyrimidinamine] | > 300
16 | COc1cccc(C(=O)Nc2nc(C)cs2)c1 | > 300
17 | CCn1c(SCC(=O)Nc2nccs2)nnc1C1CC1 [2-[(5-cyclopropyl-4-ethyl-1,2,4-triazol-3-yl)sulfanyl]-N-(1,3-thiazol-2-yl)ethanamide] | > 300
18 | Nc1nonc1-n1nnc(C(=O)NN=Cc2ccccn2)c1CNc1ccccc1 [1-(4-amino-1,2,5-oxadiazol-3-yl)-5-(anilinomethyl)-N-(2-pyridinylmethylideneamino)-4-triazolecarboxamide] | > 300

Row | SMILES | EC50 [µM]
19 | COc1cccc2c1cc1c(=O)n(CC(=O)NCCCN3CCN(C)CC3)nc(C)n12 | > 300
20 | CC1CCCCN1c1nnc(N)s1 (stereo not drawn) [5-(2-methyl-1-piperidinyl)-1,3,4-thiadiazol-2-amine] | > 300
21 | Cc1nc(Nc2ccccc2)sc1C [4,5-dimethyl-N-phenyl-1,3-thiazol-2-amine] | > 300
22 | Nc1nc(Nc2ccccc2)nc(NC2CCCCC2)c1[N+](=O)[O-] [N4-cyclohexyl-5-nitro-N2-phenylpyrimidine-2,4,6-triamine] | 7.68
23 | Cc1ccc(OCC(=O)NN=Cc2ccccc2)c([N+](=O)[O-])c1 [2-(4-methyl-2-nitro-phenoxy)-N-[(phenylmethylidene)amino]ethanamide] | > 300
24 | COc1ccccc1Nc1nc(NCCCN(C)C)nc(N)c1[N+](=O)[O-] [N2-[3-(dimethylamino)propyl]-N4-(2-methoxyphenyl)-5-nitro-pyrimidine-2,4,6-triamine] | 2.13
25 | CC1(C)CC2CC(C)(CN2S(=O)(=O)c2ccc(C(=O)Nc3ccc(Cl)c(S(=O)(=O)N4CCOCC4)c3)cc2)C1 (stereo not drawn) [N-[4-chloro-3-(4-morpholinylsulfonyl)phenyl]-4-[(3,3,5-trimethyl-7-azabicyclo[3.2.1]octan-7-yl)sulfonyl]benzamide] | > 300
26 | CCCc1cc(=O)[nH]c(SCCOc2ccc(OCC)cc2)n1 | > 300
27 | COC(=O)c1ccc(CSc2nnc(-c3ccncc3)o2)cc1 | > 300
28 | CCN1CCN(CCCNC(=O)c2ccc3c(c2)NC(=O)/C(=C\c2cccc(C)c2)S3)CC1 [(2E)-N-[3-(4-ethyl-1-piperazinyl)propyl]-2-[(3-methylphenyl)methylidene]-3-oxo-4H-1,4-benzothiazine-6-carboxamide] | 16.1
29 | O=C(CN1C(=O)CCC1=O)Nc1cccc(NC(=O)CN2C(=O)CCC2=O)c1 [2-(2,5-dioxo-1-pyrrolidinyl)-N-[3-[[2-(2,5-dioxo-1-pyrrolidinyl)-1-oxoethyl]amino]phenyl]acetamide] | > 300
30 | O=C(O)c1cc(C2CC2)nc2ccccc12 [2-cyclopropyl-4-quinolinecarboxylic acid] | > 300
31 | COc1ccc(-c2nnc3ccc(SCC(N)=O)nn23)cc1OC [2-[[3-(3,4-dimethoxyphenyl)-[1,2,4]triazolo[4,3-b]pyridazin-6-yl]sulfanyl]ethanamide] | > 300
32 | N#CCCn1cc(CN=O)c(-c2ccc(-c3ccccc3)cc2)n1 [3-[4-(hydroxyiminomethyl)-3-(4-phenylphenyl)pyrazol-1-yl]propanenitrile] | > 300
33 | Cc1cccc(Nc2nc(N3CCN(C)CC3)nc(N)c2[N+](=O)[O-])c1 [N4-(3-methylphenyl)-2-(4-methylpiperazin-1-yl)-5-nitro-pyrimidine-4,6-diamine] | > 300
34 | Cc1ccc2cc(NC(=O)c3cccc(F)c3)ccc2n1 [3-fluoro-N-(2-methyl-6-quinolinyl)benzamide] | > 300
35 | C=CCn1c(=O)c(C(=O)NCc2ccc(Cl)cc2)c(O)c2ccccc21 [N-[(4-chlorophenyl)methyl]-2-hydroxy-4-oxo-1-prop-2-enyl-3-quinolinecarboxamide] | > 300

Further lines, results first:

Row | EC50 [µM] | SMILES
36 | > 300 | Cc1ccc(C2c3c(C)noc3N=C3CC(C)(C)CC(=O)C32)cc1 (stereo not drawn) [MLS000568466]
37 | > 300 | CC(=O)Nc1ccc(S(=O)(=O)Nc2ccc3c(c2)OCCO3)cc1Cl [MLS000850184]
38 | > 300 | O=c1oc(-c2cccs2)nc2sc3c(c12)CCCC3 [SMR000116853]
39 | > 300 | CCOC(=O)CNC(=O)CSc1ccc2nnc(-c3ccc(F)cc3)n2n1 [MLS000684782]
40 | 87.5 | Nc1nc(NCCCN2CCOCC2)nc(Nc2cccc(F)c2)c1[N+](=O)[O-] [SMR000436037]
41 | 66.1 | COc1ccc(-c2nn(-c3ccccc3)cc2CN=Nc2ccccn2)cc1OC [MLS000388893]
42 | > 300 | COc1ccc(Nc2ccccc2C(=O)O)cc1 [SMR000370544]
43 | > 300 | Cc1ccc(NC(=O)CSCc2ccc(F)cc2)cc1 [MLS000701707]
44 | > 300 | NC1=N/C(=N\c2ccccc2)c2ccccc21 [MLS000057025]
45 | > 300 | COc1ccc(CNCC2COc3ccccc3O2)cc1 (stereo not drawn) [SMR000588087]
46 | > 300 | O=C(Nc1ccc2c(c1)OCO2)Nc1ccccn1 [N-1,3-benzodioxol-5-yl-N'-2-pyridinylurea]
47 | > 300 | Cc1nc(Nc2ccccc2)sc1C(=O)c1ccc(F)cc1 [SMR000567585]
48 | > 300 | Cc1cccc(-c2nnc(SCc3ccccc3)o2)c1 [MLS000067803]
